Results from US12012390B2, “Flavone compounds for the treatment and prophylaxis of hepatitis B virus disease” (priority 2018, dated 2024).
Like-named read-outs stand apart in the source and are kept apart here.

Legend:
[1] = test system: HBV in primary human hepatocytes (PHH); experiment: Cryopreserved primary human hepatocytes (PHH) HBV infection assay; format: cell-based; settings: Hepatitis B virus, Hepatocyte, 216 h, HBV-infected cryopreserved PHH, 9 days post-compound treatment
Protocol: This assay is used to confirm the anti-HBV effect of the compounds in HBV PHH infection assay. Cryopreserved PHH (BioreclamationIVT, Lot YJM) was thawed at 37° C. and gently transferred into pre-warmed InVitroGRO HT medium (BioreclamationIVT, Cat. S03317). The mixture was centrifuged at 70 relative centrifugal force (RCF) for 3 minutes at RT, and the supernatant was discarded. Pre-warmed InVitroGRO CP medium (BioreclamationIVT, Cat #S03316) was added to the cell pellet to gently re-suspend cells. The cells were seeded at the density of 5.8×10^4 cells per well to collagen I coated 96-well plate (Gibco, Cat. A1142803) with the InVitroGRO CP medium. All plates were incubated at 37° C. with 5% CO2 and 85% humidity.
At 20 hours after plating, the medium was changed to PHH culture medium (Dulbecco's Modified Eagle Medium (DMEM)/F12 (1:1) (Gibco, Cat. 11320-033), 10% fetal bovine serum (Gibco Cat. 10099141), 100 U/mL penicillin, 100 μg/mL streptomycin (Gibco, Cat. 151401-122), 5 ng/mL human epidermal growth factor (Invitrogen Cat. PHG0311L), 20 ng/mL dexamethasone (Sigma, Cat. D4902) and 250 ng/mL human recombinant insulin (Gibco, Cat. 12585-014)). And the cells were incubated at 37° C. with 5% CO2 and 85% humidity for 4 hours. The medium was then changed to pre-warmed PHH culture medium containing 4% polyethylene glycol (PEG) MW8000 (Sigma, Cat. P1458-50ML) and 1% DMSO (Sigma, Cat. D2650). 5.8×10^6 genomic equivalents of HBV were added into the medium.
At 24 hours post-infection, the cells were gently washed with PBS and refreshed with PHH culture medium supplemented with 1% DMSO, and 0.25 mg/mL Matrix gel (Corning, Cat. 356237) at 200 μL per well. All plates were immediately placed in at 37° C. CO2 incubator.
24 hours later, serial dilutions of compounds made with DMSO were further diluted with the same culture medium (PHH culture medium supplemented with 1% DMSO and 0.25 mg/mL Matrix gel as described above) before they were added to the cells to reach desired final compound concentrations and 1% DMSO concentration. The medium containing the compounds were refreshed every three days.
At 9 days post-compound treatment, extracellular HBsAg level were measured with Chemiluminescence Immuno Assay (CLIA) kit (Autobio, HBsAg Quantitative CLIA). Extracellular HBV DNA was extracted by MagNA Pure 96 system (Roche) and then determined by quantitative PCR with the following primers and probe: […]
HBsAg IC50 and HBV DNA IC50 values were derived from the dose-response curve using 4 parameter logistic curve fit method. The compounds of formula (I) have HBsAg IC50<20 μM, particularly <1 μM; and HBV DNA IC50<50 μM. Test results of the compounds of this invention as well as the reference compounds in Cryopreserved PHH assay are given in Table 2 and Table 3.

[2] = test system: HBeAg level (surrogate marker for cccDNA) in HepDES19 cells; experiment: Engineered HepDES19 primary screen assay (HBeAg as surrogate marker for cccDNA); format: cell-based, HBV
Excerpt: The assay was employed to screen for novel cccDNA inhibitors. HepDES19 is a cccDNA-producing cell line. In this cell line, HBeAg in the cell culture supernatant as surrogate marker, as HBeAg production depends on cccDNA level and activity. HepDES19 is an engineered cell line which contains a 1.1 unit length HBV genome, and pgRNA transcription from the transgene is controlled by Tetracycline (Tet). In the absence of Tet, pgRNA transcription will be induced, but HBV e antigen (HBeAg) could not be produced from this pgRNA due to very short leader sequence before the HBeAg start codon and the start codon is disrupted. Only after cccDNA is formed, the missing leader sequence and start codon mutation would be restored from the 3′-terminal redundancy of pgRNA, and then HBeAg could be synthesized. Therefore, HBeAg could be used as a surrogate marker for cccDNA (Zhou, T. et al., Antiviral Res. (2006), 72(2), 116-124; Guo, H. et al., J. Virol. (2007), 81(22), 12472-12484).
HepDES19 cells were seeded at 2×10^6 cells per T150 flask and cultured with the culture medium (Dulbecco's Modified Eagle Medium: Nutrient Mixture F-12 [DMEM-F12, Gibco Cat. 11320-82], 10% Fetal Bovine Serum [FBS, Clontech Cat. 631101], 0.1 mM Non-Essential Amino Acids Solution [NEAA, Gibco Cat. 11140-050], 50 μg/mL Penicillin-Streptomycin [PS, Invitrogen Cat. 15140-163], 500 μg/mL Geneticin [G418, Invitrogen Cat. 10131-027]) containing 3 μg/mL Tet (Sigma, Cat. 87128) for 5 days. Cells were then seeded at 4×10^6 cells per T150 in the same culture medium as described above in the absence of Tet for 8 days. Cells were then harvested and frozen at density of 2×10^6 cells per mL. For compound testing, the frozen cells were thawed and seeded into 96-well plates at a density of 6×10^4 cells per well. At 24 hrs after seeding, half log serial dilutions of compounds made with Dimethyl sulfoxide (DMSO, Sigma, Cat. D2650) were further diluted with the same culture medium as described above before they were added to the cells to reach desired final compound concentrations and 1% DMSO concentration. Plates were then incubated at 37° C. for another 5 days before measurement of HBeAg level and cell viability. Intracellular HBeAg level were measured with enzyme-linked immunosorbent assay (ELISA) kit (Shanghai Kehua Diagnostic Medical Products Co., Ltd). Cell viability was assessed using Cell Counting Kit-8 (Donjindo, Cat. CK04-20). IC50 values were derived from the dose-response curve using 4 parameter logistic curve fit method.
The compounds of the present invention were tested for their capacity to inhibit extracellular HBeAg level as described herein.

[3] = extracellular HBsAg by CLIA, read-out: HBsAg IC50
[4] = Hepatitis B virus, HepDES19, 120 h, read-out: IC50 (HBeAg) in HepDES19 primary screen assay, HepDES19 cells, 5 days incubation with compound, HBeAg by ELISA
[5] = read-out: IC50 (HBeAg) in HepDES19 primary screen assay, HepDES19 cells, 5 days incubation with compound, HBeAg by ELISA

| Compound | IC50 [1, 3] [µM] | IC50 [2, 4] [µM] | IC50 [2, 5] [µM] | IC50 ([1]; extracellular HBV DNA by quantitative PCR, read-out: HBV DNA IC50) [µM] |
| --- | --- | --- | --- | --- |
| O=c1cc(-c2ccc(OCCO[C@H]3C[C@@H](C(=O)O)C3)c(C3CC3)c2)oc2c(Cl)cccc12 [Example 45, Cis-3-[2-[4-(8-chloro-4-oxo-chromen-2-yl)-2-cyclopropyl-phenoxy]ethoxy]cyclobutanecarboxylic acid] | 0.53 | 13.2 | – | – |
| O=C(O)C1CC(OCCOc2ccc(-c3cc(=O)c4ccc(C5CC5)c(Cl)c4o3)cc2)C1 (single isomer, unassigned) [Example 70-B, 3-[2-[4-(8-chloro-7-cyclopropyl-4-oxo-chromen-2-yl)phenoxy]ethoxy]cyclobutanecarboxylic acid] | 4.79 | – | 2.14 | – |
| COc1ccc2c(=O)c(-c3ccc(C(=O)O)cc3)coc2c1 [Example F-3, 4-(7-methoxy-4-oxo-chromen-3-yl)benzoic acid, reference compound] | > 100 | > 50 | – | – |
| COC(=O)C1CC(OCCOc2ccc(-c3oc4c(Cl)cc(F)cc4c(=O)c3OC(F)(F)F)cc2)C1 (single isomer, unassigned) [Example 62-A, methyl 3-[2-[4-[8-chloro-6-fluoro-4-oxo-3-(trifluoromethoxy)chromen-2-yl]phenoxy]ethoxy]cyclobutanecarboxylate] | 4.22 | 1.01 | – | – |
| COc1ccc(-c2cc(=O)c3ccccc3o2)cc1 [Example F-2, 4′-methoxyflavone, reference compound] | 46.5 | 16.3 | – | – |
| Cc1cc(-c2cc(=O)c3ccc(C(F)(F)F)c(Cl)c3o2)ccc1OCCOC1CC(C(=O)O)C1 (centres unmarked) [Example 72, 3-[2-[4-[8-chloro-4-oxo-7-(trifluoromethyl)chromen-2-yl]-2-methyl-phenoxy]ethoxy]cyclobutanecarboxylic acid] | 7.41 | 14.4 | – | – |
| COc1ccc(-c2cc(=O)c3cc(OC)ccc3o2)cc1 [Example F-1, 6,4′-dimethoxyflavone, reference compound] | 61.7 | > 50 | – | – |
| Cc1cc(-c2cc(=O)c3cccc(Cl)c3o2)ccc1OCCOC1CC(C(=O)O)C1 (centres unmarked) [Example 47, 3-[2-[4-(8-chloro-4-oxo-chromen-2-yl)-2-methyl-phenoxy]ethoxy]cyclobutanecarboxylic acid] | 0.24 | 0.04 | – | – |
| N#Cc1cc(-c2cc(=O)c3cccc(Cl)c3o2)ccc1OCCOC1CC(C(=O)O)C1 (centres unmarked) [Example 46, 3-[2-[4-(8-chloro-4-oxo-chromen-2-yl)-2-cyano-phenoxy]ethoxy]cyclobutanecarboxylic acid] | 0.13 | 16 | – | – |
| O=C(O)C1CC(OCCOc2ccc(-c3cc(=O)c4cc(C5CC5)cc(Cl)c4o3)cc2)C1 (centres unmarked) [Example 67, 3-[2-[4-(8-chloro-6-cyclopropyl-4-oxo-chromen-2-yl)phenoxy]ethoxy]cyclobutanecarboxylic acid] | 2.77 | 14.1 | – | – |
| O=c1cc(-c2ccc(OCCO[C@H]3C[C@@H](C(=O)O)C3)nc2)oc2c(Cl)cccc12 (single isomer, unassigned) [Example 38-A, 3-[2-[[5-(8-chloro-4-oxo-chromen-2-yl)-2-pyridyl]oxy]ethoxy]cyclobutanecarboxylic acid] | 0.46 | – | 5.29 | – |
| O=C(O)COCCOc1ccc(-c2cc(=O)c3cccc(Cl)c3s2)cc1 [Example 58, 2-[2-[4-(8-chloro-4-oxo-thiochromen-2-yl)phenoxy]ethoxy]acetic acid] | 0.57 | 0.52 | – | – |
| O=C(O)c1cccc(OCCOc2ccc(-c3cc(=O)c4cccc(Cl)c4o3)cc2)c1 [Example 3, 3-[2-[4-(8-chloro-4-oxo-chromen-2-yl)phenoxy]ethoxy]benzoic acid] | 12.5 | 0.15 | – | 35.7 |
| O=c1cc(-c2cnc(OCCO[C@H]3C[C@@H](C(=O)O)C3)cn2)oc2c(Cl)cccc12 [Example 39, Cis-3-[2-[5-(8-chloro-4-oxo-chromen-2-yl)pyrazin-2-yl]oxyethoxy]cyclobutanecarboxylic acid] | 5.74 | 9.01 | – | – |
| COC(=O)[C@H]1C[C@@H](OCCOc2cnc(-c3cc(=O)c4cccc(Cl)c4o3)cn2)C1 [Example 40, Cis-methyl 3-[2-[5-(8-chloro-4-oxo-chromen-2-yl)pyrazin-2-yl]oxyethoxy]cyclobutanecarboxylate] | 7.12 | 1.61 | – | – |
| N#Cc1ccc2c(=O)cc(-c3ccc(OCCOC4CC(C(=O)O)C4)cc3)oc2c1Cl (centres unmarked) [Example 23, 3-[2-[4-(8-chloro-7-cyano-4-oxo-chromen-2-yl)phenoxy]ethoxy]cyclobutanecarboxylic acid] | 7.11 | 21.1 | – | – |
| O=c1cc(-c2ccc(OCCO[C@H]3C[C@@H](C(=O)O)C3)cc2)oc2c(Cl)ccc(Br)c12 [Example 28, Cis-3-[2-[4-(5-bromo-8-chloro-4-oxo-chromen-2-yl)phenoxy]ethoxy]cyclobutanecarboxylic acid] | 1.92 | 2.8 | – | – |
| COc1ccc2c(=O)cc(-c3ccc(OCCOC4CC(C(=O)O)C4)cc3)oc2c1Cl (centres unmarked) [Example 19, 3-[2-[4-(8-chloro-7-methoxy-4-oxo-chromen-2-yl)phenoxy]ethoxy]cyclobutanecarboxylic acid] | 1.51 | 22.2 | – | – |
| O=c1cc(-c2ccc(OCCO[C@H]3C[C@@H](C(=O)O)C3)c(F)c2)oc2c(Cl)cccc12 [Example 42, Cis-3-[2-[4-(8-chloro-4-oxo-chromen-2-yl)-2-fluoro-phenoxy]ethoxy]cyclobutanecarboxylic acid] | 0.58 | 0.61 | – | – |
| O=C(O)CCOCCOc1ccc(-c2cc(=O)c3cccc(Cl)c3o2)cc1 [Example 10, 3-[2-[4-(8-chloro-4-oxo-chromen-2-yl)phenoxy]ethoxy]propanoic acid] | 2.72 | 0.79 | – | – |
